Columns and labels:
Format in all cases: in vivo
[1] = tested on: barnyardgrass (Echinochloa crus-galli); test: Test A preemergence, barnyardgrass; conditions: 0 to 100 scale
Summary of the method: (§1)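 Compound, in a non-phytotoxic solvent blend containing surfactant, is sprayed onto soil immediately after sowing or onto young plants (one- to two-leaf, 2–10 cm). After roughly 10 d under greenhouse conditions, injury is judged by eye relative to untreated plants on a 0–100 control scale.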

kochia (Kochia scoparia) [2] = test: Test A preemergence, kochia; conditions: 0 to 100 scale
Summary of the method: as §1

[3] = tested on: ragweed (common ragweed, Ambrosia elatior); test: Test A preemergence, ragweed; conditions: 0 to 100 scale
Summary of the method: as §1

[4] = tested on: ryegrass, Italian (Lolium multiflorum); test: Test A preemergence, Italian ryegrass; conditions: 0 to 100 scale
Summary of the method: as §1

[5] = tested on: foxtail, giant (Setaria faberii); test: Test A preemergence, giant foxtail; conditions: 0 to 100 scale
Summary of the method: as §1

[6] = tested on: pigweed (Amaranthus retroflexus); test: Test A preemergence, pigweed; conditions: 0 to 100 scale
Summary of the method: as §1

[7] = tested on: barnyardgrass (Echinochloa crus-galli); test: Test A postemergence, barnyardgrass; conditions: 0 to 100 scale
Summary of the method: as §1

kochia (Kochia scoparia) [8] = test: Test A postemergence, kochia; conditions: 0 to 100 scale
Summary of the method: as §1

[9] = tested on: ragweed (common ragweed, Ambrosia elatior); test: Test A postemergence, ragweed; conditions: 0 to 100 scale
Summary of the method: as §1

[10] = tested on: ryegrass, Italian (Lolium multiflorum); test: Test A postemergence, Italian ryegrass; conditions: 0 to 100 scale
Summary of the method: as §1

[11] = tested on: foxtail, giant (Setaria faberii); test: Test A postemergence, giant foxtail; conditions: 0 to 100 scale
Summary of the method: as §1

[12] = tested on: pigweed (Amaranthus retroflexus); test: Test A postemergence, pigweed; conditions: 0 to 100 scale
Summary of the method: as §1

[13] = tested on: wheat (Triticum aestivum); test: Test A postemergence, wheat; conditions: 0 to 100 scale
Summary of the method: as §1

corn (Zea mays) = test: Test A postemergence, corn; conditions: 0 to 100 scale
Summary of the method: as §1

[14] = tested on: blackgrass (Alopecurus myosuroides); test: Test A postemergence, blackgrass; conditions: 0 to 100 scale
Summary of the method: as §1

[15] = tested on: galium (catchweed bedstraw, Galium aparine); test: Test A postemergence, galium; conditions: 0 to 100 scale
Summary of the method: as §1

rice (Oryza sativa) = test: Test B flooded paddy test, rice; conditions: Flood, 250 g ai/ha, applied to paddy water, 2-leaf stage, visual evaluation after 13 to 15 d
Summary of the method: (§2)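 Rating: 0 = no effect, 100 = complete control, visual, relative to untreated plants. Conditions: 2-leaf stage, 3 cm flood kept constant, compound put directly into water, 13–15 d greenhouse.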

[16] = tested on: sedge, umbrella (small-flower umbrella sedge, Cyperus difformis); test: Test B flooded paddy test, umbrella sedge; conditions: Flood, 250 g ai/ha, applied to paddy water, 2-leaf stage, visual evaluation after 13 to 15 d
Summary of the method: as §2

[17] = tested on: ducksalad (Heteranthera limosa); test: Test B flooded paddy test, ducksalad; conditions: Flood, 250 g ai/ha, applied to paddy water, 2-leaf stage, visual evaluation after 13 to 15 d
Summary of the method: as §2

[18] = tested on: barnyardgrass (Echinochloa crus-galli); test: Test B flooded paddy test, barnyardgrass; conditions: Flood, 250 g ai/ha, applied to paddy water, 2-leaf stage, visual evaluation after 13 to 15 d
Summary of the method: as §2

SMILES | Plant response rating, Barnyardgrass ([1]; 125 g ai/ha) | Plant response rating, Barnyardgrass ([1]; 500 g ai/ha) | Plant response rating, Kochia (kochia (Kochia scoparia) [2]; 125 g ai/ha) | Plant response rating, Kochia (kochia (Kochia scoparia) [2]; 500 g ai/ha) | Plant response rating, Ragweed ([3]; 125 g ai/ha) | Plant response rating, Ragweed ([3]; 500 g ai/ha) | Plant response rating, Ryegrass, Italian ([4]; 125 g ai/ha) | Plant response rating, Ryegrass, Italian ([4]; 500 g ai/ha) | Plant response rating, Foxtail, Giant ([5]; 125 g ai/ha) | Plant response rating, Foxtail, Giant ([5]; 500 g ai/ha) | Plant response rating, Pigweed ([6]; 125 g ai/ha) | Plant response rating, Pigweed ([6]; 500 g ai/ha) | Plant response rating, Barnyardgrass ([7]; 125 g ai/ha) | Plant response rating, Barnyardgrass ([7]; 500 g ai/ha) | Plant response rating, Kochia (kochia (Kochia scoparia) [8]; 125 g ai/ha) | Plant response rating, Kochia (kochia (Kochia scoparia) [8]; 500 g ai/ha) | Plant response rating, Ragweed ([9]; 125 g ai/ha) | Plant response rating, Ragweed ([9]; 500 g ai/ha) | Plant response rating, Ryegrass, Italian ([10]; 125 g ai/ha) | Plant response rating, Ryegrass, Italian ([10]; 500 g ai/ha) | other results
CC(Nc1ncc(C(F)(F)F)c(N)n1)C1Cc2ccccc2C1 (racemic) [Compound 6] | 0 | 60 | 80 | 100 | 30 | 100 | 30 | 70 | 90 | 100 | 100 | 100 | 10 | 10 | 70 | 90 | 20 | 40 | 0 | 20 | Plant response rating, Foxtail, Giant ([11]; 125 g ai/ha): 0; Plant response rating, Foxtail, Giant ([11]; 500 g ai/ha): 20; Plant response rating, Pigweed ([12]; 125 g ai/ha): 90; Plant response rating, Pigweed ([12]; 500 g ai/ha): 100; Plant response rating, Wheat ([13]; 125 g ai/ha): 0; Plant response rating, Wheat ([13]; 500 g ai/ha): 0; Plant response rating, Corn (corn (Zea mays); 125 g ai/ha): 0; Plant response rating, Corn (corn (Zea mays); 500 g ai/ha): 20; Plant response rating, Blackgrass ([14]; 125 g ai/ha): 0; Plant response rating, Blackgrass ([14]; 500 g ai/ha): 10; Plant response rating, Galium ([15]; 125 g ai/ha): 40; Plant response rating, Galium ([15]; 500 g ai/ha): 70; Plant response rating, Rice (0 to 100 scale, 0 is no effect, 100 is complete control) (rice (Oryza sativa)): 0; Plant response rating, Sedge, Umbrella (0 to 100 scale, 0 is no effect, 100 is complete control) [16]: 0; Plant response rating, Ducksalad (0 to 100 scale, 0 is no effect, 100 is complete control) [17]: 0; Plant response rating, Barnyardgrass (0 to 100 scale, 0 is no effect, 100 is complete control) [18]: 0
Nc1nc(NC(c2cc3ccccc3o2)C2CC2)ncc1C(F)(F)F (racemic) [Compound 18] | 50 | 80 | 0 | 60 | 80 | 100 | 50 | 50 | 90 | 90 | 90 | 100 | 10 | 80 | 50 | 90 | 20 | 70 | 0 | 30 | Plant response rating, Foxtail, Giant ([11]; 125 g ai/ha): 0; Plant response rating, Foxtail, Giant ([11]; 500 g ai/ha): 70; Plant response rating, Pigweed ([12]; 125 g ai/ha): 90; Plant response rating, Pigweed ([12]; 500 g ai/ha): 100; Plant response rating, Wheat ([13]; 125 g ai/ha): 20; Plant response rating, Wheat ([13]; 500 g ai/ha): 10; Plant response rating, Corn (corn (Zea mays); 125 g ai/ha): 0; Plant response rating, Corn (corn (Zea mays); 500 g ai/ha): 0; Plant response rating, Blackgrass ([14]; 125 g ai/ha): 20; Plant response rating, Blackgrass ([14]; 500 g ai/ha): 80; Plant response rating, Galium ([15]; 125 g ai/ha): 40; Plant response rating, Galium ([15]; 500 g ai/ha): 90; Plant response rating, Rice (0 to 100 scale, 0 is no effect, 100 is complete control) (rice (Oryza sativa)): 0; Plant response rating, Sedge, Umbrella (0 to 100 scale, 0 is no effect, 100 is complete control) [16]: 98; Plant response rating, Ducksalad (0 to 100 scale, 0 is no effect, 100 is complete control) [17]: 85; Plant response rating, Barnyardgrass (0 to 100 scale, 0 is no effect, 100 is complete control) [18]: 0
CC(Nc1ncc(C#N)c(N)n1)c1cc2ccccc2o1 (racemic) [Compound 19] | 0 | 0 | 0 | 20 | 0 | 50 | 0 | 60 | 0 | 20 | 30 | 90 | 0 | 0 | 0 | 30 | 0 | 0 | 0 | 20 | Plant response rating, Foxtail, Giant ([11]; 125 g ai/ha): 0; Plant response rating, Foxtail, Giant ([11]; 500 g ai/ha): 0; Plant response rating, Pigweed ([12]; 125 g ai/ha): 0; Plant response rating, Pigweed ([12]; 500 g ai/ha): 50; Plant response rating, Wheat ([13]; 125 g ai/ha): 0; Plant response rating, Wheat ([13]; 500 g ai/ha): 0; Plant response rating, Corn (corn (Zea mays); 125 g ai/ha): 0; Plant response rating, Corn (corn (Zea mays); 500 g ai/ha): 10; Plant response rating, Blackgrass ([14]; 125 g ai/ha): 20; Plant response rating, Blackgrass ([14]; 500 g ai/ha): 60; Plant response rating, Galium ([15]; 125 g ai/ha): 0; Plant response rating, Galium ([15]; 500 g ai/ha): 70; Plant response rating, Rice (0 to 100 scale, 0 is no effect, 100 is complete control) (rice (Oryza sativa)): 0; Plant response rating, Sedge, Umbrella (0 to 100 scale, 0 is no effect, 100 is complete control) [16]: 0; Plant response rating, Ducksalad (0 to 100 scale, 0 is no effect, 100 is complete control) [17]: 0; Plant response rating, Barnyardgrass (0 to 100 scale, 0 is no effect, 100 is complete control) [18]: 0
CCC(Nc1ncc(C#N)c(N)n1)c1cc2ccccc2o1 (racemic) [Compound 20] | 40 | 50 | 0 | 30 | 40 | 60 | 30 | 90 | 0 | 80 | 50 | 100 | 0 | 40 | 50 | 90 | 20 | 70 | 0 | 0 | Plant response rating, Foxtail, Giant ([11]; 125 g ai/ha): 0; Plant response rating, Foxtail, Giant ([11]; 500 g ai/ha): 10; Plant response rating, Pigweed ([12]; 125 g ai/ha): 60; Plant response rating, Pigweed ([12]; 500 g ai/ha): 90; Plant response rating, Wheat ([13]; 125 g ai/ha): 0; Plant response rating, Wheat ([13]; 500 g ai/ha): 10; Plant response rating, Corn (corn (Zea mays); 125 g ai/ha): 0; Plant response rating, Corn (corn (Zea mays); 500 g ai/ha): 20; Plant response rating, Blackgrass ([14]; 125 g ai/ha): 30; Plant response rating, Blackgrass ([14]; 500 g ai/ha): 100; Plant response rating, Galium ([15]; 125 g ai/ha): 30; Plant response rating, Galium ([15]; 500 g ai/ha): 80; Plant response rating, Rice (0 to 100 scale, 0 is no effect, 100 is complete control) (rice (Oryza sativa)): 0; Plant response rating, Sedge, Umbrella (0 to 100 scale, 0 is no effect, 100 is complete control) [16]: 0; Plant response rating, Ducksalad (0 to 100 scale, 0 is no effect, 100 is complete control) [17]: 0; Plant response rating, Barnyardgrass (0 to 100 scale, 0 is no effect, 100 is complete control) [18]: 0

— patent US20220119354A1, “DIAMINO-SUBSTITUTED PYRIDINES AND PYRIMIDINES AS HERBICIDES” (FMC Corporation, priority 2019, published 2022)
